In US5855906A, “Intravaginal drug delivery devices for the administration of 17β-oestradiol precursors” (priority 1994, dated 1999):
≈ marks a conversion by molar mass, not a printed value.

Tests used:
[1] = Nominal in vitro daily release from intravaginal rings under sink conditions (1% w/v benzalkonium chloride, 37 °C); format: physicochemical; conditions: calculated as anhydrous 17β-oestradiol
Method: The nominal in vitro release rates set out in Table 1 for the rings of Examples 1-5 were determined under sink conditions of 1% (w/v) benzalkonium chloride. These release rates were determined in the following manner.
Each ring (n=4) was suspended in the dissolution medium in an individual flask which is then capped, placed in a suitable oven at 37° C. and shaken. The dissolution medium was changed every 24 hours (±30 minutes). An aliquot of the used dissolution medium was analysed by high performance liquid chromatography (HPLC) using reverse phase packing and UV detection (at 235 nm for 17β-oestradiol-3-acetate and for
. The sensitivity of the original and improved analytical methods is 5 μg/100 ml.

[2] = In vitro dissolution: mean daily release from full-length-core rings over up to 90 days in three media; format: physicochemical; conditions: for Mean Daily Release: 9 × 54 mm ring, core 141 × 2 mm, 37 °C, N = 4
Excerpt: In all cases the ring geometries comprise a ring of dimensions 9 mm (cross-sectional diameter)×54 mm (outer diameter) and containing a full length core (141 mm) of cross-sectional diameter 2 mm. […] The saline and benzalkonium chloride-containing media were chosen to ensure `sink conditions` in at least one medium for each intravaginal ring. It will be recognised by those skilled in the art that the term `sink conditions` refers to that set of experimental conditions in vitro which effectively simulates the active haemoperfusion that occurs in vivo, and which results in a maximum drug concentration gradient and maximum drug diffusion rate, at any given time, across the aqueous boundary layer. Thus, an in vitro dissolution experiment can be designed such that the solution solubility of the released drug in the dissolution medium is much greater than its bulk concentration in this medium at any given time, for example, by micellar drug solubilisation due to incorporation of a surfactant such as benzalkonium chloride (BKC), at a concentration above its critical micelle concentration. Thus, each ring was suspended by a thread in an individual closed flask containing the dissolution medium, maintained at a constant temperature of 37° C. The contents of the flask were gently agitated in order to prevent the occurrence of a hydrostatic layer on the surface of the ring. After 24 hours, the ring was removed and suspended in a flask of fresh dissolution medium of identical volume by a method identical to that previously described.

[3] = In vitro release from rings of varying core length and apparent/standard k value (Crank's equation); format: physicochemical; set-up: Standard k: unit not given here; conditions: for k: in µg/day/mm; for Mean Daily Release (as precursor): 250 ml 1% (w/v) BKC
Excerpt: Precursor release from a cylindrical device of core design, which comprises a polymer matrix in the form of a core incorporating 17β-oestradiol precursor and a sheath surrounding the core, can be described by Crank's equation: [formula] in which R=precursor release rate (μg/day)
Crank's equation relates the precursor release rate (R), in sink conditions, to the solubility (C2 S) and diffusibility (D) of the precursor in the polymer matrix, its partition characteristics (π) between the polymer matrix and the dissolution medium; and the ring dimensions (l, b, a). For any given precursor in any given polymer matrix, CS, D and π will be constant and can be grouped together to form the composite constant, k:
The k value can be empirically derived using Crank's equation in the following manner: [formula]
The k value is dependent on core length for certain of the 17β-oestradiol precursors (see Example 6 hereinafter). Accordingly, the k value at a core length of 35 mm has been denoted "standard k" value hereinafter.
Intravaginal drug delivery devices in the form of rings were prepared, each with a ring geometry as described in Table 3, by following the General Method of Manufacture set out hereinabove.
The dissolution medium was changed daily, following the protocol set out hereinabove. Mean daily release rates from the second week of dissolution experiments were used to determine the apparent k values presented in Table 3.
It was, therefore, decided to determine k values at a core length of 35 mm and such k values are hereinafter referred to as "standard k" values.
The standard k value was determined from the mean daily release rates observed in Example 6. The dissolution medium of 1.0% (w/v) of an aqueous solution of benzalkonium chloride was used in respect of the various 17β-oestradiol precursors, so as to ensure sink conditions.

[4] = Silicone solubility at 37 °C in Dow Corning 360 medical fluid; format: physicochemical; conditions: organic solvent or mixture, Dow Corning 360 medical fluid, 37 °C, read-out: Silicone solubility
Method: Silicone solubility was determined at 37° C. in Dow Corning (Trade Mark) 360 medical fluid.

in vitro = conditions: human, blood
[5] = Aqueous solubility in distilled water at 20 °C; conditions: water
[6] = Stability during storage (observed in dissolution samples); conditions: dissolution medium samples
[7] = Plasma 17β-oestradiol in post-menopausal women with 60 μg intravaginal ring, 14 days (Example 10); conditions: 60 μg ring, over 14 days

nominal in vitro daily release rate ([1]; "60 μg" ring, core 2×12 mm): 57.5 to 62.5 µg | nominal in vitro daily release rate ([1]; "120 μg" ring, core 2×24 mm): 115 to 125 µg | nominal in vitro daily release rate ([1]; "240 μg" ring, core 2×47 mm): 230 to 250 µg | Mean Daily Release ([2]; 0.133% (w/v) BKC): 700 μg per day | Mean Daily Release ([2]; 0.9% (w/v) saline): 350 μg per day | Mean Daily Release ([2]; 1.0% (w/v) BKC): 850 μg per day | apparent k value versus core length ([3]; Table 3 rings, 1% (w/v) BKC): varies with core length | Mean Daily Release ([3]; Table 4, 1.0% (w/v) BKC, core length 35 mm, n = 5): 236.66 µg/day | Standard k ([3]; Table 4, core length 35 mm, 1.0% (w/v) BKC): 10.017 | k (standard k) ([3]; Table 5, core length 35 mm): 10.017 μg/day/mm | k ([3]; core length 6 mm, 1% (w/v) BKC): 12.347 | Mean Daily Release (as precursor) ([3]; core length 6 mm, n = 5): 49.25 µg/day | k ([3]; core length 12 mm, 1% (w/v) BKC): 11.517 | Mean Daily Release (as precursor) ([3]; core length 12 mm, n = 5): 91.88 µg/day | k ([3]; core length 25 mm, 1% (w/v) BKC): 10.658 | Mean Daily Release (as precursor) ([3]; core length 25 mm, n = 5): 177.15 µg/day | k ([3]; core length 35 mm, 1% (w/v) BKC): 10.017 | Mean Daily Release (as precursor) ([3]; core length 35 mm, n = 5): 236.66 µg/day | solubility [4]: 186 µg/mL (≈ 592 µM) | half-life (in vitro): < 1 min | solubility [5]: 3.8 µg/mL (≈ 12.1 µM) | mean increase in plasma 17β-oestradiol [7]: 117.98 pmol/L
SMILES: CC(=O)Oc1ccc2c(c1)CC[C@@H]1[C@@H]2CC[C@]2(C)[C@@H](O)CC[C@@H]12 [17β-oestradiol-3-acetate]
release in vitro from intravaginal rings (in words) ([2]; BKC and saline media, ring geometry of Table 2): substantial release, in both BKC and in saline | stability during storage [6]: hydrolysis to 17β-oestradiol during storage
